Measured values from patent US20240131178A1, “ANTIBODY-DRUG CONJUGATE INCLUDING ANTIBODY AGAINST HUMAN CLDN18.2, AND USE THEREOF” (LEGOCHEM BIOSCIENCES, INC., priority 2021, published 2024).
Square brackets hold non-standard residues; d marks the D form. Peptide text beside a SMILES is read from it. * marks the point of attachment. Dolaproine = CO[C@@H]([C@@H]1CCCN1)[C@@H](C)C(=O)O; Dil = CC[C@H](C)[C@H](NC)[C@@H](CC(=O)O)OC; X1 = C[C@@H](N*)[C@@H](O)c1ccccc1; NMeV = CN[C@H](C(=O)O)C(C)C

Tests used:
Format in all cases: cell-based
Conditions in all cases: 144 hours, SRB dye
[1] = test system: gastric cancer cell line NUGC-4; experiment: In vitro cytotoxicity (cell proliferation inhibition), NUGC-4
Procedure: (§1) The cell proliferation inhibitory activity of drugs shown in Table 4 and the ADCs was measured. Gastric cancer cell lines NUGC-4, SNU-601, and SNU-602, and a pancreatic cancer cell line PATU-8988s, which are commercially available as cancer cell lines, were used, and normal cell lines HaCaT, Fa2N-4, HK-2, and HS738.st/Int were used. As for test groups treated with each cancer cell line for 144 hours, cells were seeded into a 96-well plate at the rate of 2,500 cells/well to 10,000 cells/well and cultured for 24 hours, and then each cancer cell line was treated with each drug and each ADC at a concentration of 0.256 pM to 100 nM (5-fold serial diltuion), and each normal cell line was treated with each drug and each ADC at a concentration of 2.56 pM to 1,000 nM (5-fold serial dilution). The number of cells survived after 144 hours was quantified using a sulforhodamine B (SRB) dye, and the cell line Hs738.st/Int was quantified using Cell titer glo.

[2] = test system: gastric cancer cell line SNU-601; experiment: In vitro cytotoxicity (cell proliferation inhibition), SNU-601
Procedure: as §1

[3] = test system: gastric cancer cell line SNU-620; experiment: In vitro cytotoxicity (cell proliferation inhibition), SNU-620
[4] = test system: pancreatic cancer cell line PATU-8988s; experiment: In vitro cytotoxicity (cell proliferation inhibition), PATU-8988s
Procedure: as §1

normal cell line HaCaT = experiment: In vitro cytotoxicity, normal cell line HaCaT
Procedure: as §1

normal cell line Fa2N-4 = experiment: In vitro cytotoxicity, normal cell line Fa2N-4
Procedure: as §1

normal cell line HK-2 = experiment: In vitro cytotoxicity, normal cell line HK-2
Procedure: as §1

Row | SMILES | IC50 [1] | IC50 [2] | IC50 [3] | IC50 [4] | IC50 (normal cell line HaCaT) | IC50 (normal cell line Fa2N-4) | IC50 (normal cell line HK-2)
1 | C=C1C[C@H]2C=Nc3cc(OCCCCCOc4cc5c(cc4OC)C(=O)N4CC(=C)C[C@H]4C=N5)c(OC)cc3C(=O)N2C1 [SG2057] | 0.03 nM | 0.003 nM | 0.097 nM | – | – | – | –
2 | CC[C@H](C)[C@@H]([C@@H](CC(=O)N1CCC[C@H]1[C@H](OC)[C@@H](C)C(=O)N[C@H](C)[C@@H](O)c1ccccc1)OC)N(C)C(=O)[C@@H](NC(=O)[C@@H](NC)C(C)C)C(C)C [MMAE, monomethyl auristatin E] (H-[NMeV]V[Dil][Dolaproine]-X1) | 0.29 nM | 0.51 nM | 0.71 nM | 0.145 nM | 0.14 nM | 3 nM | 21.9 nM
